Test: Stability in cryopreserved hepatocytes, rat
Conditions: not given

Row | Structure (SMILES) | Trep Concentration (μM) 0 min [µM] | Trep Concentration (μM) 15 min [µM] | Trep Concentration (μM) 30 min [µM] | Trep Concentration (μM) 60 min [µM] | Trep Concentration (μM) 120 min [µM]
1 | CCCCCC(CCC1C(O)CC2Cc3c(cccc3OCC(=O)O)CC21)OC(=O)c1ccc(C)cc1 (stereo not shown) [XLVIII] | 0 | 0.1 | 0.141 | 0.221 | 0.318
2 | CCCCC[C@H]1CC[C@@H]2[C@H]3Cc4cccc(OCC(=O)O)c4C[C@H]3C[C@H]2OC(=O)O1 [XXIV] | 0.365 | 0.581 | 0.531 | 0.482 | 0.431

Same assay, conditions: rat

Row | Structure (SMILES) | AUC [µmol·min/L]
3 | CCCCCC(CCC1C(O)CC2Cc3c(cccc3OCC(=O)O)CC21)OC(=O)c1ccc(C)cc1 (stereo not shown) [XLVIII] | 24.16
4 | CCCCC[C@H]1CC[C@@H]2[C@H]3Cc4cccc(OCC(=O)O)c4C[C@H]3C[C@H]2OC(=O)O1 [XXIV] | 58.02

Test: Stability in liver microsomes, dog
Conditions: not given

Row | Structure (SMILES) | Trep Concentration 0 min [µM] | Trep Concentration 10 min [µM] | Trep Concentration 20 min [µM] | Trep Concentration 60 min [µM] | Trep Concentration 30 min [µM]
5 | CCCCCC(O)CCC1C(OC)CC2Cc3c(cccc3OCC(=O)O)CC21 (stereo not shown) [LIII] | 0.0189 | 0.0224 | 0.0209 | 0.0222 | –
6 | CCCCCC(CCC1C(O)CC2Cc3c(cccc3OCC(=O)O)CC21)OCOC(=O)C(C)(C)C (stereo not shown) [LII] | 0.758 | 0.885 | 0.868 | 0.84 | 0.834
7 | CCCCCC(CCC1C(O)CC2Cc3c(cccc3OCC(=O)O)CC21)OC(=O)N1CCCCC1 (stereo not shown) [XIX] | 0 | 0 | 0 | 0 | 0
8 | CCCCCC(CCC1C(O)CC2Cc3c(cccc3OCC(=O)O)CC21)OC(=O)c1ccc(C)cc1 (stereo not shown) [XLVIII] | 0.119 | 0.219 | 0.322 | 0.475 | 0.366
9 | CCCCC[C@H]1CC[C@@H]2[C@H]3Cc4cccc(OCC(=O)O)c4C[C@H]3C[C@H]2OC(=O)O1 [XXIV] | 0.892 | 0.975 | 0.948 | 0.86 | 0.945

Test: not given
Conditions: rat

Row | Structure (SMILES) | AUC [µmol·min/L]
10 | CCCCCC(O)CCC1C(OC)CC2Cc3c(cccc3OCC(=O)O)CC21 (stereo not shown) [LIII] | 1.47
11 | CCCCCC(CCC1C(O)CC2Cc3c(cccc3OCC(=O)O)CC21)OCOC(=O)C(C)(C)C (stereo not shown) [LII] | 51.78
12 | CCCCCC(CCC1C(O)CC2Cc3c(cccc3OCC(=O)O)CC21)OC(=O)N1CCCCC1 (stereo not shown) [XIX] | 0.00
13 | CCCCCC(CCC1C(O)CC2Cc3c(cccc3OCC(=O)O)CC21)OC(=O)c1ccc(C)cc1 (stereo not shown) [XLVIII] | 5.76
14 | CCCCC[C@H]1CC[C@@H]2[C@H]3Cc4cccc(OCC(=O)O)c4C[C@H]3C[C@H]2OC(=O)O1 [XXIV] | 45.96

Test: Stability in cryopreserved hepatocytes, dog
Conditions: not given

Row | Structure (SMILES) | Trep Concentration (μM) 0 min [µM] | Trep Concentration (μM) 15 min [µM] | Trep Concentration (μM) 30 min [µM] | Trep Concentration (μM) 60 min [µM] | Trep Concentration (μM) 120 min [µM]
15 | CCCCCC(CCC1C(O)CC2Cc3c(cccc3OCC(=O)O)CC21)OC(=O)c1ccc(C)cc1 (stereo not shown) [XLVIII] | 0 | 0.0841 | 0.115 | 0.177 | 0.214
16 | CCCCC[C@H]1CC[C@@H]2[C@H]3Cc4cccc(OCC(=O)O)c4C[C@H]3C[C@H]2OC(=O)O1 [XXIV] | 0.0779 | 0.461 | 0.438 | 0.349 | 0.296

Same assay, conditions: dog

Row | Structure (SMILES) | AUC [µmol·min/L]
17 | CCCCCC(CCC1C(O)CC2Cc3c(cccc3OCC(=O)O)CC21)OC(=O)c1ccc(C)cc1 (stereo not shown) [XLVIII] | 18.23
18 | CCCCC[C@H]1CC[C@@H]2[C@H]3Cc4cccc(OCC(=O)O)c4C[C@H]3C[C@H]2OC(=O)O1 [XXIV] | 41.94

Test: not given
Conditions: dog

Row | Structure (SMILES) | AUC [µmol·min/L]
19 | CCCCCC(O)CCC1C(OC)CC2Cc3c(cccc3OCC(=O)O)CC21 (stereo not shown) [LIII] | 1.33
20 | CCCCCC(CCC1C(O)CC2Cc3c(cccc3OCC(=O)O)CC21)OCOC(=O)C(C)(C)C (stereo not shown) [LII] | 50.60
21 | CCCCCC(CCC1C(O)CC2Cc3c(cccc3OCC(=O)O)CC21)OC(=O)N1CCCCC1 (stereo not shown) [XIX] | 0.00
22 | CCCCCC(CCC1C(O)CC2Cc3c(cccc3OCC(=O)O)CC21)OC(=O)c1ccc(C)cc1 (stereo not shown) [XLVIII] | 20.45
23 | CCCCC[C@H]1CC[C@@H]2[C@H]3Cc4cccc(OCC(=O)O)c4C[C@H]3C[C@H]2OC(=O)O1 [XXIV] | 55.49

Test: Stability in cryopreserved hepatocytes, human
Conditions: not given

Row | Structure (SMILES) | Trep Concentration (μM) 0 min [µM] | Trep Concentration (μM) 15 min [µM] | Trep Concentration (μM) 30 min [µM] | Trep Concentration (μM) 60 min [µM] | Trep Concentration (μM) 120 min [µM]
24 | CCCCCC(CCC1C(O)CC2Cc3c(cccc3OCC(=O)O)CC21)OC(=O)c1ccc(C)cc1 (stereo not shown) [XLVIII] | 0 | 0.342 | 0.304 | 0.345 | 0.347
25 | CCCCC[C@H]1CC[C@@H]2[C@H]3Cc4cccc(OCC(=O)O)c4C[C@H]3C[C@H]2OC(=O)O1 [XXIV] | 0.041 | 0.228 | 0.264 | 0.312 | 0.328

Same assay, conditions: human

Row | Structure (SMILES) | AUC [µmol·min/L]
26 | CCCCCC(CCC1C(O)CC2Cc3c(cccc3OCC(=O)O)CC21)OC(=O)c1ccc(C)cc1 (stereo not shown) [XLVIII] | 37.91
27 | CCCCC[C@H]1CC[C@@H]2[C@H]3Cc4cccc(OCC(=O)O)c4C[C@H]3C[C@H]2OC(=O)O1 [XXIV] | 33.55

Test: Stability in human subcutaneous skin homogenate
Conditions: not given
Experimental: The pool of skin homogenate was prepared by combining equal volumes of three lots that were tested in the initial skin homogenate lot assessment experiments.
A stock solution of calcein-AM was first prepared at 5 mM in DMSO, followed by a serial dilution into methanol at a concentration of 100 μM. 495 μL of skin homogenate was thawed and warmed to 37° C. A 5 μL aliquot of the 100 μM calcein-AM solution was spiked into the skin homogenate, for a final calcein-AM dosing concentration of 1 μM. After briefly mixing, 150 μL aliquots were removed in triplicate and transferred to 96-well Falcon plates. The plates were placed onto a Thermomixer and maintained at 37° C., with gentle shaking for the duration of the experiment. At each time point (0, 15, 30, 60, and 120 minutes), the plate was removed from the Thermomixer and transferred to a FLUOstar® plate reader, and the formation of calcein (Sigma) was monitored by fluorescence (490/515 nm). Calibration standards of calcein were prepared in distilled water by serial dilutions of a calcein DMSO stock at final concentrations ranging from 1 μM to 1 nM. All samples and standards were read concurrently (Table 13).
For each of the test articles, 495 μL of skin homogenate was added to triplicate centrifuge tubes. To each tube, 5 μL of a 100 μM solution of test article was added, for a final test article dosing concentration of 1 μM. The tubes were placed onto a Thermomixer and maintained at 37° C. with gentle shaking for the duration of the experiment. At each time point (0, 30, 60, and 120 minutes), a 100 μL aliquot was removed from each tube and combined with 200 μL of acetonitrile to stop the stability reaction. The tubes were mixed and centrifuged at 3000 rpm for 10 minutes. Aliquots of supernatant were removed and diluted 1:1 with distilled water containing internal standard (2 μM treprostinil-d4). Calibration standards for the treprostinil analysis were prepared for each test article in a surrogate matrix (supernatant from a mixture of 1:2 human plasma:acetonitrile), at concentrations ranging from 1 μM to 1 nM. Calibration standards were also diluted 1:1 with distilled water containing internal standard. The disappearance of each individual test article was monitored, as well as the formation of treprostinil (Table 14 and Table 15).

Row | Structure (SMILES) | Trep Concentration 0 min [µM] | Trep Concentration 30 min [µM] | Trep Concentration 60 min [µM] | Trep Concentration 120 min [µM]
28 | CCCCCC(O)CCC1C(OC)CC2Cc3c(cccc3OCC(=O)O)CC21 (stereo not shown) [LIII] | 0.0159 | 0.0165 | 0.0165 | –
29 | CCCCCC(CCC1C(O)CC2Cc3c(cccc3OCC(=O)O)CC21)OCOC(=O)C(C)(C)C (stereo not shown) [LII] | 0.0201 | 1.05 | 1.22 | 1.3
30 | CCCCCC(CCC1C(O)CC2Cc3c(cccc3OCC(=O)O)CC21)OC(=O)N1CCCCC1 (stereo not shown) [XIX] | 0 | 0 | 0 | 0

Same assay, conditions: human

Row | Structure (SMILES) | AUC [µmol·min/L]
31 | CCCCCC(O)CCC1C(OC)CC2Cc3c(cccc3OCC(=O)O)CC21 (stereo not shown) [LIII] | 1.99
32 | CCCCCC(CCC1C(O)CC2Cc3c(cccc3OCC(=O)O)CC21)OCOC(=O)C(C)(C)C (stereo not shown) [LII] | 125.70
33 | CCCCCC(CCC1C(O)CC2Cc3c(cccc3OCC(=O)O)CC21)OC(=O)N1CCCCC1 (stereo not shown) [XIX] | 0.00

Test: Stability in liver microsomes, human
Conditions: not given

Row | Structure (SMILES) | Trep Concentration 0 min [µM] | Trep Concentration 10 min [µM] | Trep Concentration 20 min [µM] | Trep Concentration 30 min [µM] | Trep Concentration 60 min [µM]
34 | CCCCCC(O)CCC1C(OC)CC2Cc3c(cccc3OCC(=O)O)CC21 (stereo not shown) [LIII] | 0.0216 | 0.0336 | 0.0343 | 0.0459 | 0.0354
35 | CCCCCC(CCC1C(O)CC2Cc3c(cccc3OCC(=O)O)CC21)OCOC(=O)C(C)(C)C (stereo not shown) [LII] | 0.948 | 0.798 | 0.679 | 0.538 | 0.346
36 | CCCCCC(CCC1C(O)CC2Cc3c(cccc3OCC(=O)O)CC21)OC(=O)N1CCCCC1 (stereo not shown) [XIX] | 0 | 0 | 0.014 | 0.018 | 0.022
37 | CCCCCC(CCC1C(O)CC2Cc3c(cccc3OCC(=O)O)CC21)OC(=O)c1ccc(C)cc1 (stereo not shown) [XLVIII] | 0.202 | 0.302 | 0.322 | 0.337 | 0.352
38 | CCCCC[C@H]1CC[C@@H]2[C@H]3Cc4cccc(OCC(=O)O)c4C[C@H]3C[C@H]2OC(=O)O1 [XXIV] | 0.326 | 0.342 | 0.341 | 0.326 | 0.23

Same assay, conditions: human

Row | Structure (SMILES) | AUC [µmol·min/L]
39 | CCCCCC(O)CCC1C(OC)CC2Cc3c(cccc3OCC(=O)O)CC21 (stereo not shown) [LIII] | 2.24
40 | CCCCCC(CCC1C(O)CC2Cc3c(cccc3OCC(=O)O)CC21)OCOC(=O)C(C)(C)C (stereo not shown) [LII] | 35.46
41 | CCCCCC(CCC1C(O)CC2Cc3c(cccc3OCC(=O)O)CC21)OC(=O)N1CCCCC1 (stereo not shown) [XIX] | 0.83
42 | CCCCCC(CCC1C(O)CC2Cc3c(cccc3OCC(=O)O)CC21)OC(=O)c1ccc(C)cc1 (stereo not shown) [XLVIII] | 19.27
43 | CCCCC[C@H]1CC[C@@H]2[C@H]3Cc4cccc(OCC(=O)O)c4C[C@H]3C[C@H]2OC(=O)O1 [XXIV] | 18.43

Test: Stability in liver microsomes, rat
Conditions: not given

Row | Structure (SMILES) | Trep Concentration 0 min [µM] | Trep Concentration 10 min [µM] | Trep Concentration 20 min [µM] | Trep Concentration 30 min [µM] | Trep Concentration 60 min [µM]
44 | CCCCCC(O)CCC1C(OC)CC2Cc3c(cccc3OCC(=O)O)CC21 (stereo not shown) [LIII] | 0.0196 | 0.0177 | 0.024 | 0.0274 | 0.0271
45 | CCCCCC(CCC1C(O)CC2Cc3c(cccc3OCC(=O)O)CC21)OCOC(=O)C(C)(C)C (stereo not shown) [LII] | 0.937 | 0.938 | 0.892 | 0.838 | 0.802
46 | CCCCCC(CCC1C(O)CC2Cc3c(cccc3OCC(=O)O)CC21)OC(=O)N1CCCCC1 (stereo not shown) [XIX] | 0 | 0 | 0 | 0 | 0
47 | CCCCCC(CCC1C(O)CC2Cc3c(cccc3OCC(=O)O)CC21)OC(=O)c1ccc(C)cc1 (stereo not shown) [XLVIII] | 0.0583 | 0.0944 | 0.0864 | 0.0909 | 0.123
48 | CCCCC[C@H]1CC[C@@H]2[C@H]3Cc4cccc(OCC(=O)O)c4C[C@H]3C[C@H]2OC(=O)O1 [XXIV] | 0.779 | 0.791 | 0.79 | 0.802 | 0.681
